Reference: article PMC6261607, “Novel high–throughput myofibroblast assays identify agonists with therapeutic potential in pulmonary fibrosis that act via EP2 and EP4 receptors” (PLoS ONE, 2018)
Where two headings read alike, the source gives them in different places.

Legend:
[1] = test system: α–SMA protein in NHLF cells; test: RapidFire MS/MS quantification of α–SMA (IPQA), standard assay; format: cell-based, human
Method: Cell culture medium was removed and cells were lysed on ice by adding 5 μl / well of pre–cooled protein extraction buffer containing 10 mM Tris–HCl (pH 8.0), 6 M urea and 2 M thiourea and shaking on ice on a plate shaker at 600 rpm for 30 min.
Cell lysate was transferred to a 96–well polypropylene–PCR–plate. 15 μl / well denaturation buffer (6 M urea, 50 mM ammonium bicarbonate) and 2 μl / well of 50 mM TCEP were added and samples were denatured for 1 h at 60°C using the Veriti 96–well Fast Thermal Cycler System (Applied Biosystem) with a heated lid. Plates were allowed to cool to RT. Subsequently, 2 μl of 100 mM iodoacetamide were added per well to derivatize cysteine residues. Plates were then sealed and vortexed for 2 min in the dark and incubated for 30 min at 37°C in a thermal cycler with a heated lid. 90 μl of 50 mM ammonium bicarbonate pH 7.8 were added, followed by the addition of 10 μl of trypsin at 0.02 μg / ml. Samples were trypsin–digested overnight at 37°C in a thermal cycler with heated lid. […] Samples were desalted under vacuum using an Oasis HLB 96–well (30 μm particle size, 5 mg sorbent / well) reverse phase cartridge according to the manufacturer’s instructions and eluted with 170 μl of 90% acetonitrile, 0.1% formic acid. Samples were dried down with a flow of nitrogen at 40°C, left to cool to RT and re–suspended in 40 μl 5% acetonitrile, 0.1% formic acid on a plate shaker set to 1400 rpm for 5 min. Plates were centrifuged at 4,000 rpm for 10 min and 2 times 12 μl / well of supernatant were transferred into separate 96–well plates (Greiner Bio–One), sealed and stored at 4°C until analyzed by MS / MS.
Surrogate tryptic peptides were chosen for detection of COL1 (COL1A1), α–SMA (ACTA) and tubulin (TBA1A1) and crude synthetic peptides were purchased from Thermo Fischer. After several rounds of optimization following standard workflows, […] (COL1 / COL1A1), […] (α–SMA / ACTA) and […] LC–MS / MS analysis was performed on a RapidFire™ RF360 system (Agilent Technologies) coupled to an API 5500 (ABSciex) with positive ion electrospray ionization. […] Detection was performed using multiple reaction monitoring (MRM) mode to monitor parent⟶product ion transitions (m / z). […] The source parameters were curtain gas (CUR) nitrogen: 20 psig; collision gas (CAD): 7 psig; ion source gas 1: 50.0 psig; ion source gas 2: 50.0 psig; ion spray voltage (IS): 5500 V; turbo heater temperature (TEM): 600°C; entrance potential (EP): 10V. Peak areas for COL1A1 and ACTA were normalized by dividing by TBA1A peak area.

[2] = test system: TGF–β1–induced NHLF myofibroblasts; test: HCA, NHLF myofibroblast reversal assay; format: cell-based; conditions: Homo sapiens; reversal assay: 24 h 5 ng/ml TGF–β1, washed, 72 h compound
Method: Each well of a 384–well clear bottom microtiter plate was coated with 0.1% laminin solution for 60 min at 37°C and rinsed once with PBS. NHLF cells were seeded at a density of 750 cells / well in a volume of 40 μl FGM–2 medium and grown for 24 h at 37°C, 5% CO2 and 95% relative humidity. The plate was washed 3 times with starvation medium, e.g. fibroblast basal medium (FBM, Lonza) supplemented with 0.1% faf BSA, 100 units / ml of penicillin and 100 μg / ml of streptomycin and 250 ng / ml amphotericin B, and then starved for 24 h in 30 μl volume. NHLF were differentiated into myofibroblasts by incubation with 5 ng / ml TGF–β1 (from a stock of 20 μg / ml in 4 mM HCl, 1 mg / ml BSA) for 48 h. Compounds were prepared as 5x stocks in starvation medium and added to the starved cells to a final 1x concentration concomitant with TGF–β1 addition. The final DMSO concentration in the assay was 0.6% in all wells. 48 h after TGF–β1 addition, the medium was removed and the cells were fixed in methanol for 10 min at room temperature (RT). After fixation, cells were washed 3 times with 1 x PBS and either stored at 4°C for up to 3 days or further processed. The fixed cells were blocked with 10% goat serum in PBS, 0.25% Tween–20 for 60 min at RT. The primary antibodies, i.e., mouse monoclonal anti–α–SMA (Sigma–Aldrich) and rabbit anti–FN antibody (Sigma–Aldrich), were diluted 1:400 in 10% goat serum in PBS, 0.25% Tween–20 and the fixed cells were incubated with the antibodies for 60 min at RT. After washing the cells 3 times with 1 x PBS, 0.25% Tween–20 the detection antibodies, i.e., goat anti–mouse AlexaFluor 488 (Invitrogen) and goat anti–rabbit AlexaFluor 647 (Invitrogen) were diluted 1:1000 in 1 x PBS, 0.25% Tween–20 and incubated for 1 h at RT together with 1 μg / ml DAPI to stain nuclei and HCS CellMask Orange Stain to label the entire cell. The stained cells were washed 3 times with 1 x PBS containing 0.25% Tween–20, followed by three washes in 1 x PBS, sealed with backing tape and stored at 4°C. Images were acquired on the Opera Phenix confocal high–content screening system (Perkin Elmer) using the 20–x water immersion lens.
Image analysis: The image data acquired with the HCS system were uploaded to ORBIT, an open source image analysis software developed at Idorsia Pharmaceuticals Ltd (http://www.orbit.bio), and analyzed using 288 CPUs in parallel on our computing grid with the ORBIT Cell–Classifier framework using an appropriate CellProfiler pipeline. DAPI stained nuclei were used to identify cells. α–SMA and FN regions were then identified and mapped to the corresponding nuclei for background correction, cell segmentation and cell feature computation to identify, classify and weigh over 400 features per cell. The computed features (S1 Table) comprise, but are not limited to, granularity, intensity, texture, area, shape and solidity of a cell in both α–SMA–and FN–expressing regions. The 0% compound effect (5 ng / ml TGF–β1) and the 100% compound effect (0 ng / ml TGF–β1) controls, were used to train and validate a support vector machine (SVM), a supervised learning model with associated learning algorithm that, once successfully validated, was applied to every cell in every well of the assayed microtiter plate. The SVM allowed autonomous weighting and classification of the characteristics and thus enabled the classifier to decide which characteristics were most relevant for the differentiation of the cell types. […] The classification of each cell was aggregated to a cell type ratio per well, represented as the computed percentage effect value per well indicative of the degree of myofibroblast differentiation. E.g. 100% equals complete myofibroblast differentiation, 0% indicates a pure fibroblast population without any signs of differentiation.
To identify compounds with potential to revert differentiated myofibroblasts to fibroblasts the assay procedures were modified.

[3] = Homo sapiens, NHLF, 5 ng/ml TGF–β1, 48 h, representative experiment of supplementary figure, read-out: IC50 on α–SMA (curve of a single experiment)
[4] = Homo sapiens, NHLF, 5 ng/ml TGF–β1, lysed 48 h after TGF–β1, normalized to tubulin, mean ± SD, read-out: MS / MS α–SMA IC50

| Molecule | IC50 [1, 3] [µM] | IC50 [1, 4] [µM] | IC50 [2] [µM] | also measured |
| --- | --- | --- | --- | --- |
| CCCCC[C@H](O)/C=C/[C@H]1[C@H](O)CC(=O)[C@@H]1CCCCCCC(=O)O [Alprostadil] | 0.0006 | 0.0019 ± 0.0016 | 0.28 | effect on basal α–SMA expression ([1]; NHLF in the absence of TGF–β1): no effect |
| C[C@]12CC[C@H](O)C[C@H]1CC[C@@H]1[C@@H]2C[C@@H](O)[C@]2(C)[C@@H](C3=CC(=O)OC3)CC[C@]12O [Digoxigenin] | – | 0.038 ± 0.006 | 0.076 | – |
| Cc1cccc(-c2[nH]c(CNc3ccccc3F)nc2-c2ccc3ncnn3c2)n1 [EW–7197] | – | 0.051 ± 0.017 | 18 | – |
| CC(C)(C)c1ccc(CN(Cc2cccc(OCC(=O)O)c2)S(=O)(=O)c2cccnc2)cc1 [Evatanepag] | 0.0055 | 0.026 ± 0.029 | 2.3 | – |
| O=C(CC1NCCCC1O)Cn1cnc2cc(Br)c(Cl)cc2c1=O (centres unmarked) [Halofuginone] | 0.024 | 0.027 ± 0.004 | 0.12 | – |
| O=C1CC[C@H](/C=C/[C@@H](O)Cc2ccccc2)N1CCCCCCc1nn[nH]n1 [Merck–19a] | – | – | – | IC50 ([1]; NHLF, 5 ng/ml TGF–β1, lysed 48 h after TGF–β1, normalized to tubulin, mean ± SD, read-out: MS / MS α–SMA IC50): 0.108 ± 0.087 µM |
| COC(=O)c1ccc2c(c1)NC(=O)/C2=C(\Nc1ccc(N(C)C(=O)CN2CCN(C)CC2)cc1)c1ccccc1 [Nintedanib] | – | 0.5 ± 0.12 | 6.9 | – |
| CCCCC[C@H](O)/C=C/[C@H]1[C@H](O)CC(=O)[C@@H]1C/C=C\CCCC(=O)O [PGE2, prostaglandin E2] | 0.0003 | 0.0012 ± 0.0012 | 0.145 | – |
| TGF–β1: transforming growth factor–β1, stimulus of myofibroblast differentiation | – | – | – | α-SMA / tubulin ratio ([1]; NHLF, 5 ng/mL TGF-β1): 0.51 ± 0.06; EC50 of α–SMA protein increase ([1]; NHLF, 48 hours, MS/MS (n = 8)): 0.07 ± 0.01 ng/mL; increase of α–SMA protein ([1]; NHLF, at 48 hours): about 3 fold |
